≈ marks a conversion by molar mass, not a printed value. Where a name gives a salt, the structure may show the parent alone. Read-outs that look alike come from different tables or passages of the source.

For test [1], the target named is T1, rat squalene epoxidase (Rattus norvegicus, UniProt P52020).
T1 construct: Livers were extracted and homogenized; from tissue; host or cells: liver of SD-strain female rats; microsomes solubilized with 2 % Triton X-100, 105000 x g supernatant
Put plainly: Squalene epoxidase inhibiting activity (3H-squalene to squalene-2,3-epoxide, solubilized liver microsome fraction). The class given is biochemical. Conditions: 8 µM 3H-squalene, 37 °C, 30 minutes, read-out: 50 % inhibitory concentration (IC50). The protocol: The rat squalene epoxidase was prepared by the method described in J. Biol. Chem., vol.
SD-strain female rats were killed by exsanguination. Livers were extracted and homogenized with in the presence of 2 volumes of 0.1M Tris-HCl buffer (pH 7.5). The homogenate was centrifuged at 9750 Xg for 10 minutes. The supernatant fraction was further centrifuged at 105000 Xg for 1 hour. The sediment was washed with 0.1M Tris-HCl buffer (pH 7.5), and then centrifuged at 105000 Xg for 1 hour. The microsomes obtained were suspended in 0.1M Tris-HCl buffer (pH 7.5) so that the amount of proteins was 40 mg/ml, and under ice cooling, the suspension was stirred in the presence of 2 % Triton X-100 to solubilize the enzyme. After the solubilization, the solution was diluted to a Triton X-100 concentration of 0.5 % with 1 mM EDTA and 1 mM dithiothreitol, and centrifuged at 105000 Xg for 1 hour. The resulting supernatant fraction was used in the following test as a squalene epoxidase fraction.
The squalene epoxidase activity was assayed in accordance with the method described in J. Biol. Chem., vol.
Three microliters of a dimethyl sulfoxide solution of a test drug was added to a solution composed of 0.2 ml of the squalene epoxidase fraction prepared in (1) [proteins 0.4 mg, 0.5 % Triton X-100, […] Tris-HCl buffer (pH 7.5)], 100 µM FAD, 1 mM NADPH, 1 mM EDTA and 8 µM ³H-squalene-Tween 80 emulsion to adjust the total amount of the solution to 0.3 ml. The solution was incubated at 37 °C for 30 minutes with shaking. Then, 0.3 ml of a 10 % methanolic potassium hydroxide was added to stop the reaction, and the reaction mixture was left to stand at room temperature for 1 hour. The non-saponified material was extracted with petroleum ether, and the solvent was evaporated under a nitrogen stream. […] The position of the resulting ³H-squalene-2,3-epoxide on TLC was determined using ergosterol acetate as a marker, and the ³H-squalene-2,3-epoxide portion on the TLC was cut off. The TLC strip was immersed in a toluene-type scintillator, and measured by a liquid scintillation counter.
Background: Liver microsomes are vesicles of endoplasmic reticulum, rich in cytochrome P450 enzymes.

Test [2] relates to cholesterol biosynthesis in the cultured Hep-G2 cells. Kind of test: Inhibitory activity on cholesterol biosynthesis in cultured cells ([14C] acetate incorporation). The note with it: HepG2; Human hepatoma (Hep-G2) cells, [14C] sodium acetate, 6 hours; read-out: 50% inhibitory concentration (IC₅₀). It is filed as cell-based. The protocol: Human hepatoma (Hep-G2) cells were cultured in 10 cm² dishes until they formed a monolayer. One milliliter of the culture medium was replaced, and 1 µCi of [¹⁴C] sodium acetate and 1 microliter of a dimethyl sulfoxide solution of a test drug were added, and the cells were cultured at 37 °C in air containing 5 % of carbon dioxide for 6 hours.
After the cultivation, the medium was aspirated, and the cells were cooled with ice, and washed with Dulbecco's phosphate buffered saline solution. The resulting cells were scraped by a rubber policeman, and collected by centrifugation. The cells collected were dissolved in 400 microliters of 0.3N sodium hydroxide. A 200 microliters aliquot of the solution was used for extraction, and the remainder, for protein determination.
To 200 microliters of the extracted cells, 15 % ethanolic potassium hydroxide was added, and saponification was carried out at 75 °C for 1 hour. Water (1 ml) was then added, and the mixture was extracted with 2 ml of petroleum ether twice to remove non-saponified materials. The petroleum ether extracts were washed with 1 ml of water, and evaporated under a nitrogen stream. The residue was spotted on a pre-coated silica gel TLC plate using a small amount of chloroform, and developed with hexane/ethyl ether/acetic acid (85:15:4). Cholesterol and squalene portions on the TLC were detected with iodine, and the corresponding TLC portions were cut out. The TLC strips were immersed in a toluene-type scintillator, and radioactivity was counted by a liquid scintillation counter. The results were corrected by the amount of proteins measured by the method described in J. Biol. Chem., vol. 193, page 265, 1951. The 50 % inhibitory concentration (IC₅₀ value) of the compound of the invention on cholesterol biosynthesis in the cultured Hep-G2 cells was calculated.

For test [3], the system named is Candida albicans. Put plainly: Antimycotic activity test (Sabouraud's agar dilution, MIC). The note with it: 48 h. The class given is cell-based. The protocol:
(§1) Each of the test fungi was cultured (Candida albicans was cultured overnight in Sabouraud broth; Trichophyton was inoculated in Sabouraud's agar and cultured for 2 days, after which the spores were harvested). Thereafter, one platinum loopful of Candida albicans or Trichophyton (10⁶ cells/ml for C. albicans; 10⁶ spores/ml for Trichophyton) was inoculated in Sabouraud's agar containing the test drug in various concentrations, and cultured (at 37 °C for 2 days for C. albicans; at 28 °C for 5 days for Trichophyton). Then, the minimum growth inhibition concentration (MIC) was measured. […]

Test [4] deals with Trichophyton. Described as above. The class given is cell-based. Conditions: 120 h. The protocol: as §1
The test system of test [5] is cholesterol biosynthesis. Put plainly: Test on inhibition of cholesterol biosynthesis in vivo ([14C] acetate, plasma 14C-cholesterol). The note with it: male SD rats, 100 mg/kg orally; for ¹⁴C-cholesterol: dpm of 14C-cholesterol present in 1 ml of the plasma; for Inhibition of cholesterol biosynthesis: test group compared with control group. The protocol:
Male SD rats, 5 weeks of age, were used in the in vivo test. The rats were kept for 9 days in an environment of reversed light cycle (i.e., dark between 6:00 am and 6:00 pm). The rats were allowed to take a solid diet and water freely. The test drug was orally administered two hours before dark sixth hour when the cholesterol synthesis reached a maximum. Compounds 6 and 44 were administered as a suspension in a 0.5 % aqueous solution of methyl cellulose. Compound 45 was administered in a 0.5 % aqueous solution of methyl cellulose containing 5 % of dimethyl sulfoxide and 1 % Tween 80. The dose was 1 ml/100 g of body weight.
An equal volume of 0.5 % methyl cellulose was administered to a control group. One hour after administration of the test drug, [¹⁴C] sodium acetate (56 mCi/mmole) was intraperitoneally administered to the rats in a dose of 20 µCi/100 g of body weight. At dark sixth hour, a blood sample was obtained from the abdominal artery under ether anesthesia, and the plasma was separated by centrifugation.
Two milliliters of plasma was mixed with a 15 % methanolic potassium hydroxide and saponified by heating at 75 °C for 3 hours. The resulting sample was extracted with 2 ml of petroleum ether twice. The extracts were washed with 2 ml of distilled water, and finally evaporated under a nitrogen stream. The resulting residue was dissolved in a small amount of ethyl ether, and all the solution was spotted on a pre-coated silica gel TLC plate. The plate was developed with a solvent system composed of hexane/ethyl ether/acetic acid (85:15:4). Color formation was carried out by iodine, and the radioactivity of the cholesterol portion was measured by a liquid scintillation counter.
The results were expressed in dpm of the resulting ¹⁴C-cholesterol present in 1 ml of the plasma. The inhibition of cholesterol biosynthesis was calculated by comparing the amounts of ¹⁴C-cholesterol biosynthesized in the test group and that in the control group.

Where [6] appears, read: C. albicans, 37 °C for 2 days, read-out: MIC.
Setting [7] is: 28 °C for 5 days, read-out: MIC.

T1 sequence (P52020 whole entry): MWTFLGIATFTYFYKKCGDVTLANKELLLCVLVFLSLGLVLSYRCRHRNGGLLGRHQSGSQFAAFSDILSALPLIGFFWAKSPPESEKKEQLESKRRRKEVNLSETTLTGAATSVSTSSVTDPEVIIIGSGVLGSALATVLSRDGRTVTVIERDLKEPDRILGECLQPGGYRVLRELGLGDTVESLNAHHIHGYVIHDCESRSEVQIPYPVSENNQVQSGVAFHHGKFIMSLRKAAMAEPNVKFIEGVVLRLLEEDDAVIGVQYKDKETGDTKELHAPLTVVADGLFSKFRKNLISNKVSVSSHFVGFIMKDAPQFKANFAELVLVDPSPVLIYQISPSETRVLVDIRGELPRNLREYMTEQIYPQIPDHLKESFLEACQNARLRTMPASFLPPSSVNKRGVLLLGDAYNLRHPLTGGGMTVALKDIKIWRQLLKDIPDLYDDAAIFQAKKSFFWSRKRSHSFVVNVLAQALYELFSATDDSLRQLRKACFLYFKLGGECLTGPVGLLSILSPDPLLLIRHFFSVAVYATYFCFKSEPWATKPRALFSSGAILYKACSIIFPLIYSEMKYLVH

Turning to `CCCN(C/C=C/C#CC(C)(C)C)Cc1cccc(OCc2ccccc2)c1` [Compound 37, (E)-N-(6,6-dimethyl-2-hepten-4-ynyl)-N-propyl-3-benzyloxybenzylamine], the IC50 in test [1] was 270 nM; in test [2], 85 nM.
With `CCCN(C/C=C/C#CC(C)(C)C)Cc1cccc(OCc2cccc(C#N)c2)c1` [Compound 47, (E)-N-(6,6-dimethyl-2-hepten-4-ynyl)-N-propyl-3-(3-cyanobenzyloxy)benzylamine hydrochloride], the IC50 in test [1] came to 150 nM; in test [2], 90 nM.
For the compound `CCN(C/C=C/C#CC(C)(C)C)Cc1cccc(OCc2cccc(C#N)c2)c1` [Compound 46, (E)-N-(6,6-dimethyl-2-hepten-4-ynyl)-N-ethyl-3-(3-cyanobenzyloxy)benzylamine], the IC50 turned out to be 150 nM in test [1] and 110 nM in test [2].
As usually defined, the MIC is the lowest concentration found to suppress growth. Consider `CN(C/C=C/C#CC(C)(C)C)Cc1cccc2ccccc12` [terbinafine, reference compound], for which the MIC in test [3] is 0.3 µg/mL (≈ 1.03 µM); in test [4], below 0.01 µg/mL. In addition, the IC50 in test [1] is above 100000 nM.
Regarding `Cc1ccccc1CNc1cccc(CN(C)C/C=C/C#CC(C)(C)C)c1` [Compound 103, (E)-N-(6,6-dimethyl-2-hepten-4-ynyl)-N-methyl-3-(2-methylbenzylamino)benzylamine hydrochloride], the results for the IC50 in test [1] and in test [2] were 360 nM and 450 nM, respectively.
With `CN(C/C=C/C#CC(C)(C)C)Cc1cccc(CCc2ccccc2)c1` [Compound 107, (E)-N-(6,6-dimethyl-2-hepten-4-ynyl)-N-methyl-3-(beta-phenethyl)benzylamine], the minimum inhibitory concentration (MIC) in test [3] (setting [6]) and in test [4] (setting [7]) was above 100 µg/mL in each case. In addition, the IC50 in test [1] was 3600 nM.
On to `CN(C/C=C/C#CC(C)(C)C)Cc1cccc(OCc2cccc(C#N)c2)c1.Cl` [Compound 64, (E)-N-(6,6-dimethyl-2-hepten-4-ynyl)-N-methyl-3-(3-cyanobenzyloxy)benzylamine hydrochloride], for which the MIC in test [3] (setting [6]) and in test [4] (setting [7]) was above 100 µg/mL throughout. Further, the IC50 in test [1] came out at 510 nM; in test [2] it was 120 nM.
For `CN(C/C=C/C#CC(C)(C)C)Cc1cccc(OCc2cccc(-c3cnco3)c2)c1` [Compound 78, (E)-N-(6,6-dimethyl-2-hepten-4-ynyl)-N-methyl-3-[3-(5-oxazolyl)benzyloxy]benzylamine], the IC50 is 63 nM in test [1] and 20 nM in test [2].
Regarding `CCN(C/C=C/C#CC(C)(C)C)Cc1cccc(OCc2ccccc2)c1` [Compound 36, (E)-N-(6,6-dimethyl-2-hepten-4-ynyl)-N-ethyl-3-benzyloxybenzylamine hydrochloride], the IC50 in test [1] came out at 300 nM; in test [2], 64 nM.
`Cc1ccccc1COc1cccc(CN(C)C/C=C/C#CC(C)(C)C)c1.Cl` [Compound 6, (E)-N-(6,6-dimethyl-2-hepten-4-ynyl)-N-methyl-3-(2-methylbenzyloxy)benzylamine hydrochloride]: in test [1], the IC50 stood at 560 nM. The IC50 in test [2] was found to be 340 nM. In addition, in test [5], the ¹⁴C-cholesterol is reported as 862±387 dpm and the “Inhibition of cholesterol biosynthesis” value turned out to be 53%.
Turning to `CN(C/C=C/C#CC(C)(C)C)Cc1cccc(OCc2cccc(-c3cncs3)c2)c1` [Compound 79, (E)-N-(6,6-dimethyl-2-hepten-4-ynyl)-N-methyl-3-[3-(5-thiazolyl)benzyloxy]benzylamine], the IC50 in test [1] came out at 89 nM; in test [2], 23 nM.
In the case of `CN(C/C=C/C#CC(C)(C)C)Cc1cc(OCc2ccccc2)ccn1.Cl.Cl` [Compound 110, (E)-N-(6,6-dimethyl-2-hepten-4-ynyl)-N-methyl-4-benzyloxy-2-pyridylmethylamine dihydrochloride], the minimal inhibitory concentration (MIC) in test [3] (setting [6]) and in test [4] (setting [7]) was above 100 µg/mL throughout. For the same compound, the IC50 in test [1] came out at 1500 nM.
Turning to `CN(C/C=C/C#CC(C)(C)C)Cc1cccc(OCc2ccccc2)c1.Cl` [Compound 2, (E)-N-(6,6-dimethyl-2-hepten-4-ynyl)-N-methyl-3-benzyloxybenzylamine hydrochloride], the MIC in test [3] (setting [6]) and in test [4] (setting [7]) was above 100 µg/mL each time. Also, the IC50 amounted to 1400 nM in test [1] and 1500 nM in test [2].
Consider `CCN(C/C=C/C#CC(C)(C)C)Cc1cccc(OCc2ccccc2C)c1.Cl` [Compound 44, (E)-N-(6,6-dimethyl-2-hepten-4-ynyl)-N-ethyl-3-(2-methylbenzyloxy)benzylamine hydrochloride], for which the IC50 in test [1] turned out to be 160 nM. In addition, the IC50 in test [2] was 50 nM. For the same compound, in test [5], the ¹⁴C-cholesterol was found to be 568±313 dpm and the “Inhibition of cholesterol biosynthesis” value was found to be 69%.
With `CC(C)=CCOc1cccc(CN(C)C/C=C/C#CC(C)(C)C)c1` [Compound 61, (E)-N-(6,6-dimethyl-2-hepten-4-ynyl)-N-methyl-3-(3-methyl-2-butenyloxy)benzylamine], the MIC in test [3] (setting [6]) and in test [4] (setting [7]) was above 100 µg/mL in each case. The IC50 in test [1] came to 6100 nM.
Regarding `CN(C/C=C/C#CC(C)(C)C)Cc1cccc(/C=C/c2ccccc2)c1.Cl` [Compound 97, N-[(E)-6,6-dimethyl-2-hepten-4-ynyl]-N-methyl-3-[(E)-styryl]benzylamine hydrochloride], the minimum inhibitory concentration (MIC) in test [3] (setting [6]) and in test [4] (setting [7]) was above 100 µg/mL throughout. Further, the IC50 in test [1] is 320 nM.
Take `CN(C/C=C/C#CC(C)(C)C)Cc1cccc(OCc2cccc3ccccc23)c1` [Compound 18, (E)-N-(6,6-dimethyl-2-hepten-4-ynyl)-N-methyl-3-(1-naphthylmethyloxy)benzylamine]: the MIC in test [3] (setting [6]) and in test [4] (setting [7]) was above 100 µg/mL in each case. The IC50 in test [1] turned out to be 250 nM.
